The nature of data set [1]: Distribution of sugar-modified AVP in organs (Test 1). As to conditions: rats, i.v. 1 nmol/kg; for renal selectivity: 5 min after administration, concentration in organs and organ clearance as index (Figs. 1 and 2). In kind it is in vivo, male SD rats. As for the experimental part: (§1) The organ clearance was determined by the following equation.
The organ clearance under the above experimental conditions is considered as a measure of the speed at which the compound is incorporated into the organs. The kidney is an organ which functions to perform glomerular filtration for the production of urine. The renal clearance of low-molecular weight compounds, which are likely to undergo glomerular filtration, is generally larger than the clearance for other organs. Further, under the above experimental conditions, it was estimated from the results on ^14C-labeled inulin that the incorporation of about 0.6 ml/min/g was carried out by glomerular filtration. Larger values indicate the incorporation of drugs into the kidney through blood vessels in addition to the glomerular filtration.

A short description of data set [2]: Renal selectivity (organ distribution) of thioglucoside-modified products (Test 6). As for the experimental part: as §1
Organ distribution was studied on Glc-S-C8 and, in addition, thioglucoside modification products of AVP, tryptamine, NBD as a fluorescent dye, doxorubicin as an anticancer agent and the like. Glc-S-C8 (the labeled product was prepared by catalytic exchange with ^3H gas; the specific activity 40.7 GBq/mmol), AVP derivatives, and tryptamine derivatives were converted to ^3H-labeled product and then studied on organ selectivity in the same manner as in Test 1. For the NBD derivatives, an experiment on distribution was carried out under conditions of dose 10 nmol/kg and 3 min. The vital sample was deproteinized with acetonitrile, subjected to separation by reversed phase liquid chromatography, and then quantitatively determined by fluorescence detection. DXR and derivatives thereof were administered at a dose of 50 nmol/kg, and, 3 min after the administration, the distribution was detected in the same manner as used for the NBD derivatives.

Data set [3] can be described thus: Autoradiography of sugar-modified AVPs in the kidney (Test 2). It counts as in vivo. As to conditions: rats, 5 min after administration, compared with Gal-C8-O-AVP and AVP. As for the experimental part:
Sugar-modified AVPs were administered to rats. Five min after the administration, accumulation sites in the kidney were examined by autoradiography.

The conditions of data set [4]: rat, in vivo.
Data set [5] in a line: Pharmacokinetic test of rats (Glc-S-C5-Ala-DEX) (Test 10 (1)). It counts as in vivo. The settings on record: male, rat, iv, Group B, i.v. 100 nmol/kg, n = 3, average ± SD. The text has this:
For both the groups, the dose was 100 nmol/kg.
Plasma was fractionated from the collected blood according to the conventional method. Further, the kidney and the liver were extracted. The plasma was deprotenized, and the organs were homogenized and deprotenized, followed by separation by reversed phase liquid chromatography. Thereafter, Glc-S-C5-Ala-DEX and dexamethasone were detected and quantitatively determined by UV detector.

Data set [6] can be described thus: Renal selectivity of modified anti-inflammatory steroid, part 1: total radioactivity in organs (Test 7). As to conditions: rats, i.v. 10 nmol/kg, 5 min.
[7] abbreviates: rats, ^3H-labeled product, same manner as Test 1 (i.v. 1 nmol/kg, 5 min).

Structures are written as SMILES. Like-named read-outs stand apart in the source and are kept apart here.

As to `N=C(N)NCCC[C@H](NC(=O)[C@@H]1CCCN1C(=O)[C@@H]1CSSC[C@H](NC(=O)CCCCCCCCO[C@H]2C[C@@H](O)[C@H](O)[C@@H](CO)O2)C(=O)N[C@@H](Cc2ccc(O)cc2)C(=O)N[C@@H](Cc2ccccc2)C(=O)N[C@@H](CCC(N)=O)C(=O)N[C@@H](CC(N)=O)C(=O)N1)C(=O)NCC(N)=O` [2dGlc-O-C8-AVP], the renal selectivity result in data set [1] is listed as “high renal selectivity”.

The molecule `COc1cccc2c1C(=O)c1c(O)c3c(c(O)c1C2=O)C[C@@](O)(C(=O)CO)C[C@@H]3O[C@H]1C[C@H](N)[C@H](O)[C@H](C)O1` [DXR, doxorubicin] returned a Renal clearance in data set [2] (rats, DXR and derivatives: dose 50 nmol/kg, 3 min after administration) of 0.54 ± 0.10 mL/min/g.

Regarding `N=C(N)NCCC[C@H](NC(=O)[C@@H]1CCCN1C(=O)[C@@H]1CSSC[C@H](NC(=O)CCCCCCCCO[C@@H]2O[C@H](CO)[C@H](O)[C@H](O)[C@H]2O)C(=O)N[C@@H](Cc2ccc(O)cc2)C(=O)N[C@@H](Cc2ccccc2)C(=O)N[C@@H](CCC(N)=O)C(=O)N[C@@H](CC(N)=O)C(=O)N1)C(=O)NCC(N)=O` [Gal-O-C8-AVP], the renal selectivity result in data set [1] was “the renal selectivity was the same as that for AVP”.

With `N=C(N)NCCC[C@H](NC(=O)[C@@H]1CCCN1C(=O)[C@@H]1CSSC[C@H](NC(=O)CCCCCCCCO[C@@H]2O[C@H](CO)[C@@H](O)[C@H](O)[C@H]2O)C(=O)N[C@@H](Cc2ccc(O)cc2)C(=O)N[C@@H](Cc2ccccc2)C(=O)N[C@@H](CCC(N)=O)C(=O)N[C@@H](CC(N)=O)C(=O)N1)C(=O)NCC(N)=O` [Glc-O-C8-AVP], in data set [1] (5 min, Fig. 2), the Renal clearance worked out at 2.43 mL/min/g. Further, the renal selectivity result in data set [1] is “high renal selectivity”. Also, in data set [3], the “concentration in cortical part and in the outer layer of the outer band in the medulla” value is “clearly higher”; the “concentration in the medulla” value is “lower”.

In data set [4], `CC[C@H](C)[C@@H]1NC(=O)[C@H](Cc2ccc(O)cc2)NC(=O)[C@@H](NC(=O)CCCCCCCCO[C@@H]2O[C@H](CO)[C@@H](O)[C@H](O)[C@H]2O)CSSC[C@@H](C(=O)N2CCC[C@H]2C(=O)N[C@@H](CC(C)C)C(=O)NCC(N)=O)NC(=O)[C@H](CC(N)=O)NC(=O)[C@H](CCC(N)=O)NC1=O` [Glc-O-C8-Oxy] registered a Hepatic clearance of 0.08 ± 0.00 mL/min/g and a Renal clearance of 1.05 ± 0.05 mL/min/g.

For the molecule `COc1cccc2c1C(=O)c1c(O)c3c(c(O)c1C2=O)C[C@@](O)(C(=O)COC(=O)CCCCCCCCS[C@@H]1O[C@H](CO)[C@@H](O)[C@H](O)[C@H]1O)C[C@@H]3O[C@H]1C[C@H](N)[C@H](O)[C@H](C)O1` [Glc-S-C8-COO-DXR, 14-[9-(1-thio-β-D-glucopyranosyl)nonanoyl]doxorubicin], the “formation of free DXR in plasma and kidney” value in data set [2] (rat, in vivo) was “could be confirmed”.

With `N=C(N)NCCC[C@H](NC(=O)[C@@H]1CCCN1C(=O)[C@@H]1CSSC[C@H](NC(=O)CCCCCCCCO[C@H]2O[C@H](CO)[C@@H](O)[C@H](O)[C@@H]2O)C(=O)N[C@@H](Cc2ccc(O)cc2)C(=O)N[C@@H](Cc2ccccc2)C(=O)N[C@@H](CCC(N)=O)C(=O)N[C@@H](CC(N)=O)C(=O)N1)C(=O)NCC(N)=O` [Man(α)-O-C8-AVP], the renal selectivity entry in data set [1] was “the renal selectivity was the same as that for AVP”.

As to `N=C(N)NCCC[C@H](NC(=O)[C@@H]1CCCN1C(=O)[C@@H]1CSSC[C@H](NC(=O)CCCCCCCCO[C@@H]2O[C@H](CO)[C@@H](O)[C@H](O)[C@@H]2O)C(=O)N[C@@H](Cc2ccc(O)cc2)C(=O)N[C@@H](Cc2ccccc2)C(=O)N[C@@H](CCC(N)=O)C(=O)N[C@@H](CC(N)=O)C(=O)N1)C(=O)NCC(N)=O` [Man-O-C8-AVP], in data set [1], the renal selectivity entry is given as “high renal selectivity”.

`CC[C@H](C)[C@@H]1NC(=O)[C@H](Cc2ccc(O)cc2)NC(=O)[C@@H](NC(=O)CCCCCCCCO[C@@H]2O[C@H](CO)[C@@H](O)[C@H](O)[C@@H]2O)CSSC[C@@H](C(=O)N2CCC[C@H]2C(=O)N[C@@H](CC(C)C)C(=O)NCC(N)=O)NC(=O)[C@H](CC(N)=O)NC(=O)[C@H](CCC(N)=O)NC1=O` [Man-O-C8-Oxy]: in data set [4], the Hepatic clearance stood at 0.14 ± 0.02 mL/min/g and the Renal clearance amounted to 3.59 ± 0.17 mL/min/g.

With `NCCc1c[nH]c2ccccc12` [Tryptamine], in data set [2] (setting [7]), the Conc. in kidney is reported as 3.5±0.3 % of dose/g and the Renal clearance is 0.63 ± 0.07 mL/min/g.

As to `C[C@@H]1C[C@H]2[C@@H]3CCC4=CC(=O)C=C[C@]4(C)[C@@]3(F)[C@@H](O)C[C@]2(C)[C@@]1(O)C(=O)CO` [dexamethasone], the concentration at 5 min in data set [5] (kidney, read-out: Concentration of dexamethasone: Kidney) stood at 203 ± 39.3 nM. Further, in data set [5] (liver, read-out: Concentration of dexamethasone: Liver), the concentration at 5 min came to 930 ± 119 nM. The concentration at 5 min in data set [5] (plasma, read-out: Concentration of dexamethasone: Plasma) stood at 116 ± 13.6 nM. In data set [6], the “Total conc. of dexamethasone in organ: Adrenal” value was 24.65±0.95 pmol/g tissue, the “Total conc. of dexamethasone in organ: Blood” value is listed as 7.61±0.49 pmol/g tissue, the “Total conc. of dexamethasone in organ: Fat” value is reported as 2.74±1.12 pmol/g tissue and the “Total conc. of dexamethasone in organ: Heart” value stood at 14.86±1.05 pmol/g tissue. Besides, in data set [6], the “Total conc. of dexamethasone in organ: Kidney” value is listed as 22.36±0.80 pmol/g tissue, the “Total conc. of dexamethasone in organ: Liver” value turned out to be 65.90±12.61 pmol/g tissue, the “Total conc. of dexamethasone in organ: Lung” value was found to be 16.49±1.57 pmol/g tissue and the “Total conc. of dexamethasone in organ: Spleen” value was 11.04±0.25 pmol/g tissue.

The values are drawn from patent publication EP0953357A1, “NEPHROTROPIC DRUGS” (Drug Delivery System Institute, Ltd., priority 1997, dated 1998).
